Measured values as given in ChEMBL document CHEMBL1145000, “Nitro and amino substitution in the D-ring of 5-(2-dimethylaminoethyl)- 2,3-methylenedioxy-5H-dibenzo[c,h][1,6]naphthyridin-6-ones: effect on topoisomerase-I targeting activity and cytotoxicity” (J Med Chem, 2003).

How the values were obtained:
[1] = Cytotoxic activity against human lymphoblast tumor cell line CPT-K5 after 4 days of treatment; type: functional; conditions: CPT-K5, 96 h
RPMI 8402 = experiment: Cytotoxic activity against human lymphoblast tumor cell line RPMI8402 after 4 days of treatment; type: functional, cell-based; conditions: RPMI 8402, 96 h
[2] = biological target: T1, DNA topoisomerase 1 (Homo sapiens) (UniProt P11387)
T1 sequence (whole entry): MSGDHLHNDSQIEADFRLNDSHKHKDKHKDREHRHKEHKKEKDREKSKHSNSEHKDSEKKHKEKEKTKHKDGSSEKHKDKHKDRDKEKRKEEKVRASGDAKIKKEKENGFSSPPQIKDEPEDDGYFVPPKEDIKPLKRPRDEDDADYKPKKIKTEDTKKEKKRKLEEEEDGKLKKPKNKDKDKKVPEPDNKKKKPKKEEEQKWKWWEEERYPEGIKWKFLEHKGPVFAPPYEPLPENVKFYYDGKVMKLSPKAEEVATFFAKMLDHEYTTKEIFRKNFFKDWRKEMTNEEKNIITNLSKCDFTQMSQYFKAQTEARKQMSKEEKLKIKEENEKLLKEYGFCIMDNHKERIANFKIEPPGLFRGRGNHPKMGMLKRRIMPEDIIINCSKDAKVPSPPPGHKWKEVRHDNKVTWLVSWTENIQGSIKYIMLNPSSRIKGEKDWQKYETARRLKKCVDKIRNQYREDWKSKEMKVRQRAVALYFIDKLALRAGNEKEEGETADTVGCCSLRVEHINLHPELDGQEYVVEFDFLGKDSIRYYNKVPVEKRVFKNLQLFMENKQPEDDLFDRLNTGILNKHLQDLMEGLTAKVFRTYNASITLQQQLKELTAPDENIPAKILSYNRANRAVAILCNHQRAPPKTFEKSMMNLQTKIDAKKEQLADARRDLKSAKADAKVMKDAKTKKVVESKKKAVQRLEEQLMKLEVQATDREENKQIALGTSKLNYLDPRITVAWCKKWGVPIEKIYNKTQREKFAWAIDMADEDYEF
Description: Effective concentration required to cleave DNA, mediated by human DNA topoisomerase I (TOP1) reported as REC i.e. concentration relative to topotecan (assumed as 1)

Row | SMILES | IC50 [1] [µM] | IC50 (RPMI 8402) [µM] | REC [2]
1 | CN(C)CCn1c(=O)c2cc([N+](=O)[O-])ccc2c2cnc3cc4c(cc3c21)OCO4 | 0.33 | 0.003 | 0.2
2 | COc1cc2c(=O)n(CCN(C)C)c3c4cc5c(cc4ncc3c2cc1OC)OCO5 | 0.9 | – | –
3 | CC[C@@]1(O)C(=O)OCc2c1cc1n(c2=O)Cc2cc3c(CN(C)C)c(O)ccc3nc2-1 [TOPOTECAN] | > 50 | – | 1
4 | CN(C)CCn1c(=O)c2cccc(N)c2c2cnc3cc4c(cc3c21)OCO4 | 3.2 | 0.34 | 15
5 | CN(C)CCn1c(=O)c2ccc(N)cc2c2cnc3cc4c(cc3c21)OCO4 | 1 | 0.025 | 0.5
6 | CN(C)CCn1c(=O)c2ccccc2c2cnc3cc4c(cc3c21)OCO4 | 0.95 | 0.06 | 6
7 | CN(C)CCn1c(=O)c2ccc([N+](=O)[O-])cc2c2cnc3cc4c(cc3c21)OCO4 | 2.8 | 0.002 | 0.1
8 | COc1cc2c(=O)n(CCN(C)C)c3c4cc5c(cc4nnc3c2cc1OC)OCO5 | 0.6 | – | 0.3
9 | CN(C)CCn1c(=O)c2cccc([N+](=O)[O-])c2c2cnc3cc4c(cc3c21)OCO4 | > 10 | 4.8 | 1000
10 | CC[C@@]1(O)C(=O)OCc2c1cc1n(c2=O)Cc2cc3ccccc3nc2-1 [CAMPTOTHECIN] | – | 0.005 | 0.5
11 | CCCCn1c(=O)c2cc([N+](=O)[O-])ccc2c2cnc3cc4c(cc3c21)OCO4 | > 10 | 0.24 | 10
12 | COc1cc([C@@H]2c3cc4c(cc3[C@@H](O[C@@H]3O[C@@H]5CO[C@@H](c6cccs6)O[C@H]5[C@H](O)[C@H]3O)[C@H]3COC(=O)[C@H]23)OCO4)cc(OC)c1O [TENIPOSIDE] | 0.28 | – | > 1000
13 | CCCCn1c(=O)c2cc(N)ccc2c2cnc3cc4c(cc3c21)OCO4 | > 10 | 1.25 | 500
14 | CN(C)CCn1c(=O)c2cc(N)ccc2c2cnc3cc4c(cc3c21)OCO4 | 0.38 | 0.08 | 8
15 | CN1CCN(c2ccnc3cc4c(cc23)OCO4)C(=O)c2cc([N+](=O)[O-])ccc21 | > 10 | 3 | 1000
